Experiment in all cases: Free drug in vitro cytotoxicity (resazurin)
Assay type in all cases: cell-based
For orientation: Resazurin is reduced to fluorescent resorufin, in cell work by metabolically active cells.

One assay deals with Caki-1. The method, then: (§1) Cells as detailed below were collected and plated in 96 well black-sided plates at a density of 10,000 cells/well in 150 μL of medium. […] Resazurin (0.25 mM, 50 μL, Sigma, St. Louis, Mo.) in medium was added and incubation was continued for 4 hours. The plates were read on a Fusion HT microplate reader (Packard, Meriden, Conn.) using an excitation wavelength of 525 nm and an emission wavelength of 590 nm. Data from all assays were reduced using GraphPad Prism Version 4 for Windows (GraphPad Software, San Diego, Calif.). The IC50 concentrations compared to untreated control cells were determined using a 4 parameter curve fits.

For another assay, the system named is 786-O. The method, then:
as §1

Another assay has as its system HEL9217. The method, then: as §1
Another assay deals with HL60. The method, then: as §1

Regarding `COC(=O)c1ccc(C2=CN3C(=O)c4cc(OC)c(OCCCCCOc5cc6c(cc5OC)C(=O)N5C=C(c7ccc(N)cc7)C[C@H]5C=N6)cc4N=C[C@@H]3C2)cc1` [compound 4, (S)-2-(4-aminophenyl)-7-methoxy-8-(5-((S)-7-methoxy-2-(4-methyloxycarbonylphenyl)-5-oxo-5,11a-dihydro-1H-pyrrolo[2,1-c][1,4]benzodiazepin-8-yloxy)pentyloxy)-1H-pyrrolo[2,1-c][1,4]benzodiazepine-5(11aH)-one], the IC50 with Caki-1 (Homo sapiens, CAKI-1, following 48 hours treatment) is 0.02 nM; in the assay with 786-O (Homo sapiens, 786-0, following 48 hours treatment), 0.05 nM; in the assay on HEL9217 (Homo sapiens, HEL 92.1.7, following 48 hours treatment), 0.008 nM; in the assay with HL60 (Homo sapiens, HL-60, following 48 hours treatment) it was 0.008 nM.
In the case of `COc1cc2c(cc1OCCCOc1cc3c(cc1OC)C(=O)N1C=C(c4ccc(O)cc4)C[C@H]1C=N3)N=C[C@@H]1CC(c3ccc(N)cc3)=CN1C2=O` [compound 14], the IC50 with Caki-1 (following 48 hours treatment) came out at 0.4 nM; in the assay on 786-O (following 48 hours treatment) it was 0.2 nM; in the assay on HEL9217 (following 48 hours treatment), 0.05 nM; with HL60 (following 48 hours treatment) it was 0.03 nM.

As usually defined, the IC50 is the midpoint of a concentration-inhibition curve.

The record behind these values is patent publication US10329352B2, “Pyrrolobenzodiazepines and targeted conjugates” (priority 2011, dated 2019).
